Literature values as cited in patent US20150218090A1, “DOSAGE REGIMEN FOR AN S1P RECEPTOR MODULATOR OR AGONIST” (NOVARTIS AG, priority 2011, published 2015).

Settings: administration of 1.25 mg of FTY720; healthy subjects

CCCCCCCCc1ccc(CCC(N)(CO)CO)cc1 [FTY720, 2-amino-2-[2-(4-octylphenyl)ethyl]propane-1,3-diol]
decrease in heart rate: approximately 8 beats/min
